According to ChEMBL document CHEMBL1201862, “PubChem BioAssay data set” (2004):
Active and inactive are the calls of the source.

How the values were obtained:
Prothrombin = Prothrombin (Homo sapiens, UniProt P00734); experiment: Thrombin 1536 HTS Dose Response Confirmation. [Related pubchem assays: 1046 (Thrombin 1536 HTS; hits were confirmed in this assay)]; format: functional
[1] = target: T1, Calpain-2 catalytic subunit (Sus scrofa, UniProt P43367); experiment: m-calpain protease blockers, concentration series – biochemical, fluorogenic peptide substrate, dose response (AID 1420); format: functional
T1 sequence (P43367 whole entry): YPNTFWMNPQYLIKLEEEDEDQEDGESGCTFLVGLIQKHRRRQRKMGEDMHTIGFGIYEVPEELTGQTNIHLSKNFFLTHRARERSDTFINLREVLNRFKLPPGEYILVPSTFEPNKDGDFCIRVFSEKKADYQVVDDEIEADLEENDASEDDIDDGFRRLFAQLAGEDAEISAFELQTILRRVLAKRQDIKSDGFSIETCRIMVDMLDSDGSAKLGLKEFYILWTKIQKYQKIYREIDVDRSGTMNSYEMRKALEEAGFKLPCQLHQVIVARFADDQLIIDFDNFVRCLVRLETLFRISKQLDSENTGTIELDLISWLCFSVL

[2] = target: T2, Mannose-6-phosphate isomerase (Homo sapiens, UniProt P34949); experiment: MPI inhibition at elevated mannose 6-phosphate – biochemical, fluorescence intensity, high mannose 6-phosphate, primary screen (AID 1220)
T2 sequence (P34949 whole entry): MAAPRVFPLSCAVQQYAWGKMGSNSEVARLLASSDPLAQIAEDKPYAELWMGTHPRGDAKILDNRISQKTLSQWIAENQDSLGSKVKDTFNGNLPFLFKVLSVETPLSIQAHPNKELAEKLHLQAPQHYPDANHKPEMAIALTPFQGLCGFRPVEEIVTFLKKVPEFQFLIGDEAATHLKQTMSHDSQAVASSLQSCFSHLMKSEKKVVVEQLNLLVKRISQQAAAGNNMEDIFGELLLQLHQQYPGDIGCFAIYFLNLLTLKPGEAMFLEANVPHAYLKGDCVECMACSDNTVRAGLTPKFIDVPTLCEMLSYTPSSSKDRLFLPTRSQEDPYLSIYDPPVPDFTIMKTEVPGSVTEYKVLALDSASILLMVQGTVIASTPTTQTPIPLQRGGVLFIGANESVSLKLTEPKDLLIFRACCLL

[3] = target: T3, Histone-lysine N-methyltransferase NSD2 (Homo sapiens, UniProt O96028); format: biochemical
T3 sequence (O96028 whole entry): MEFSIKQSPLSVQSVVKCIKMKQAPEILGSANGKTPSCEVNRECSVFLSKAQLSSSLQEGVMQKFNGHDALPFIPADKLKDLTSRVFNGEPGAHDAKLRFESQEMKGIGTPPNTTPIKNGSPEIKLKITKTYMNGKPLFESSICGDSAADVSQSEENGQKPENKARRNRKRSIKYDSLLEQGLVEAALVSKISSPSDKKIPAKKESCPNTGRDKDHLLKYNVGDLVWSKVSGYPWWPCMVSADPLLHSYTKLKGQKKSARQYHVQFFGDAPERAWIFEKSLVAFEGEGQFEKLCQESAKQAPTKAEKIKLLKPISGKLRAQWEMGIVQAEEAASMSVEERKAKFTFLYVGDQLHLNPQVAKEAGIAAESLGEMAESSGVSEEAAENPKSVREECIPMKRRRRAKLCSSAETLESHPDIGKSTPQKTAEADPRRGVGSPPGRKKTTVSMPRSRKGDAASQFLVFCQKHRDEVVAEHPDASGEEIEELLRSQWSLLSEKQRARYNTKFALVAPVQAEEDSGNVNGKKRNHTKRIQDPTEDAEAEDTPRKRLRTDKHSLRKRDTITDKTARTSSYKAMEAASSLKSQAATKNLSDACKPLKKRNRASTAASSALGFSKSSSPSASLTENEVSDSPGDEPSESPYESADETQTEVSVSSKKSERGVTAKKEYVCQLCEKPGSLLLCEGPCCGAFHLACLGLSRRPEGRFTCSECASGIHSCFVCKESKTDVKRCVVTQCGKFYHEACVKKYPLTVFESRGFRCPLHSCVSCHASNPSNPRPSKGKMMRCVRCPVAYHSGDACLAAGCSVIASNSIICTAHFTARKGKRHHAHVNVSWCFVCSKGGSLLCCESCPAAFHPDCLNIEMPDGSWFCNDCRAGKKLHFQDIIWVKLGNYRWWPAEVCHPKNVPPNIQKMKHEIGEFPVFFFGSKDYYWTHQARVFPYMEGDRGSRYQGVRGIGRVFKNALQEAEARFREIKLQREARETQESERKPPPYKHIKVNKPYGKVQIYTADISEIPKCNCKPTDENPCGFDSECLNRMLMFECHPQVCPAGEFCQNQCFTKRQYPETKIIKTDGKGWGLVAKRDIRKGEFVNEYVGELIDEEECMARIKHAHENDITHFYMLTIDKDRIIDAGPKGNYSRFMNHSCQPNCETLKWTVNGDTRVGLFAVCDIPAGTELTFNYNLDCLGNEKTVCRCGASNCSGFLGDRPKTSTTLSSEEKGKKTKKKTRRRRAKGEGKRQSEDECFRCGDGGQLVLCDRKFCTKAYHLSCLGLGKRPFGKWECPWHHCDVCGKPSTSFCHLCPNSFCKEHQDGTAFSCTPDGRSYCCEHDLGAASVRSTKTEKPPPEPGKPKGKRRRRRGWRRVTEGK

[4] = HEK-293T viability loss after treatment – luminescence, T-cell screen hits, cytotoxicity control for TCR NF-kB inhibitor project, dose response (AID 489026); format: functional, cell-based;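 also: cells exposed to compound about 14 hours before the viability readout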
Protein Wnt-3a = Protein Wnt-3a (Mus musculus, UniProt P27467); experiment: antagonism of Wnt3a pathway luciferase reporter – Wnt-LIGHT cells, luminescence, selectivity assay for Gli-SUFU antagonist project, dose response (AID 651570); format: functional; details: read-out: IC50_Mean;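 also: Wnt-LIGHT reporter cells stimulated with conditioned medium from Wnt3a-producing cells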
Chain of Protein Wnt-3a (P27467 whole entry, the tested form may be a part): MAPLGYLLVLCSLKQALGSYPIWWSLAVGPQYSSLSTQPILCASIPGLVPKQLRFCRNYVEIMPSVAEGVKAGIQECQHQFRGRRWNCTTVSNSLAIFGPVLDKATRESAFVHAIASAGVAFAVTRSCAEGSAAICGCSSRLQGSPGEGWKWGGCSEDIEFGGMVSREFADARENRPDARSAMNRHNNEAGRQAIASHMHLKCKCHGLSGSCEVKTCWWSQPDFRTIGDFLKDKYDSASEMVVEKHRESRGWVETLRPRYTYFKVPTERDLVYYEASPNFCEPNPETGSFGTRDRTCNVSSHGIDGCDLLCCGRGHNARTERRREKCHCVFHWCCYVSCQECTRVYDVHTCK

[5] = blockers of HIV-1 envelope-mediated cell-cell fusion – cherry-pick, dose response (AID 652057); format: functional, cell-based
[6] = off-target signal loss in HeLa-CEM21 co-culture – HeLa F-luc CTL cells, cherry-picked, counter-screen for HIV-1 Env fusion inhibitor project, dose response (AID 652040); format: functional, cell-based;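 also: potency for signal decrease marking cytotoxic or nonspecific inhibition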
[7] = HIV-1 AD8 envelope cell-cell fusion blockers – cherry-pick, dose response (AID 652062); format: functional, cell-based;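 also: luciferase signal from cell-cell fusion driven by HIV-1 clade B AD8 Env; potency is for inhibitors of fusion seen as a drop in luminescence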
[8] = luciferase reporter signal suppression in cells – H4 neuroglioma cells, luminescence, dose response (AID 1990); format: functional, cell-based
[9] = Luminescence Cell-Based Dose Response HTS to Identify Inhibitors of 5'UTR Stem-Loop Driven Prion Protein mRNA Translation in H4 Neuroglioblastoma Cells. [Related pubchem assays: 1827 (Project Summary), 1813 (Primary HTS)]; format: functional
[10] = target: T4, Heat shock factor protein 1 (Mus musculus, UniProt P38532); experiment: decrease of HSF1-responsive luciferase luminescence – cell-based, NIH3T3, dose retest, confirmation (AID 2382); format: functional;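 also: NIH3T3 fibroblasts with HSF1-driven luciferase reporter stressed by proteasome inhibitor MG132; luminescence from HSF1-driven luciferase expression after 8 hours of MG132 stress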
T4 sequence (P38532 whole entry): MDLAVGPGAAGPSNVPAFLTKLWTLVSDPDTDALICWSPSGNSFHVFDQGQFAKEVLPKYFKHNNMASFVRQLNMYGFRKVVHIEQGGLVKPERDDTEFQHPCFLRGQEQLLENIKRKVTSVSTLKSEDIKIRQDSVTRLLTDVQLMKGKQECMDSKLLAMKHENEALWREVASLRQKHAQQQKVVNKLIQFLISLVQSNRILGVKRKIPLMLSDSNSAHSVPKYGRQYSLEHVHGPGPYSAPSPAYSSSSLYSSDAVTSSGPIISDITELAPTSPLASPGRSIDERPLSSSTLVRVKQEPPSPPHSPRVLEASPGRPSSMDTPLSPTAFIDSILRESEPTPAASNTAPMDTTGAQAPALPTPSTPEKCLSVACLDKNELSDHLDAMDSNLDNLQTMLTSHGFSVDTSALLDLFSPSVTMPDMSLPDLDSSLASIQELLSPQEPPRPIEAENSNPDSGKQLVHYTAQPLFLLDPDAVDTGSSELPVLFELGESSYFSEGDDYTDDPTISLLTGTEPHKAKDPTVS

[11] = alpha-synuclein stem-loop luciferase translation blockers – H4 neuroglioma cells, luminescence, confirmation (AID 1988); format: functional, cell-based
HEK293 = experiment: EBV LMP1 TES2 canonical NF-kB signalling blockers – cell-based, HEK293, luciferase, cherry-pick, dose response (AID 588343); format: functional; details: Homo sapiens
[12] = blockers of HIV-1 ZM109 envelope-driven cell-cell fusion – HeLa effector, CEM target cells, luciferase, cherry-pick, dose response (AID 652058); format: functional, cell-based;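 also: luciferase signal from HIV-1 Env mediated cell-cell fusion of effector and target cells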
Cytochrome P450 2C19 = Cytochrome P450 2C19 (Homo sapiens, UniProt P33261); experiment: Cytochrome panel assay with activity outcomes. Panel member name: p450-cyp2c19 Compounds with AC50 equal or less than 10 uM are considered active; format: functional; details: read-out: AC50
Chain of Cytochrome P450 2C19 (P33261 whole entry): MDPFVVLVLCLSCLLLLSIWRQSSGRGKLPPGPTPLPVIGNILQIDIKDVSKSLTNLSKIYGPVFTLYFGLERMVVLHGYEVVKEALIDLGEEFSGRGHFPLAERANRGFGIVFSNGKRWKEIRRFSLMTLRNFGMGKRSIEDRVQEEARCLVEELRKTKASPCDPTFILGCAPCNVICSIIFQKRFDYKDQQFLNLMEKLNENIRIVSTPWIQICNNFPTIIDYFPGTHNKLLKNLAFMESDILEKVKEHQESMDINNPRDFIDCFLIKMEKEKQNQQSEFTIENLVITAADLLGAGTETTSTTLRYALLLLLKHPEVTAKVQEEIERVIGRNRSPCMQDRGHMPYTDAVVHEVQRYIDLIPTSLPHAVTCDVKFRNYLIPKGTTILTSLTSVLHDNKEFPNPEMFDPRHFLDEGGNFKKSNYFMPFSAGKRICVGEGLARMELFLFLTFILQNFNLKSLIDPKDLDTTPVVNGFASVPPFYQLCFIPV

Cytochrome P450 2C9 = Cytochrome P450 2C9 (Homo sapiens, UniProt P11712)
Chain of Cytochrome P450 2C9 (P11712 whole entry): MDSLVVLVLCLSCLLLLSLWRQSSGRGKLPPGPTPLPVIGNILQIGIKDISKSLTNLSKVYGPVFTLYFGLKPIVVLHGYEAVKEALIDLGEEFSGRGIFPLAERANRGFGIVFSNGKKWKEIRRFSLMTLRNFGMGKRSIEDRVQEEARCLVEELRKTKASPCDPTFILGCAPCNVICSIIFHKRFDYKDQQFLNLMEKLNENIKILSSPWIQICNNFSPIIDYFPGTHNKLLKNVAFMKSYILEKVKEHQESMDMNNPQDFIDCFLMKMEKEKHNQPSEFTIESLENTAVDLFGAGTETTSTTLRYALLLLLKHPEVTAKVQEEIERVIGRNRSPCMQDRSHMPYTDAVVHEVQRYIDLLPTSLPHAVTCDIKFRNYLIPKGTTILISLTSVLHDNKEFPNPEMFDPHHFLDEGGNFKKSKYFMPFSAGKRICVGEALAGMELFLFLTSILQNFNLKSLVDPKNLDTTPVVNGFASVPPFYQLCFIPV

Leucine aminopeptidase = target: T5, Leucine aminopeptidase (Plasmodium falciparum 3D7, UniProt Q8IL11); experiment: P. falciparum M17LAP inhibitors, primary screen, biochemical, fluorogenic H-Leu-NHMec substrate, 1536-well (AID 1619); format: functional
T5 sequence (Q8IL11 whole entry): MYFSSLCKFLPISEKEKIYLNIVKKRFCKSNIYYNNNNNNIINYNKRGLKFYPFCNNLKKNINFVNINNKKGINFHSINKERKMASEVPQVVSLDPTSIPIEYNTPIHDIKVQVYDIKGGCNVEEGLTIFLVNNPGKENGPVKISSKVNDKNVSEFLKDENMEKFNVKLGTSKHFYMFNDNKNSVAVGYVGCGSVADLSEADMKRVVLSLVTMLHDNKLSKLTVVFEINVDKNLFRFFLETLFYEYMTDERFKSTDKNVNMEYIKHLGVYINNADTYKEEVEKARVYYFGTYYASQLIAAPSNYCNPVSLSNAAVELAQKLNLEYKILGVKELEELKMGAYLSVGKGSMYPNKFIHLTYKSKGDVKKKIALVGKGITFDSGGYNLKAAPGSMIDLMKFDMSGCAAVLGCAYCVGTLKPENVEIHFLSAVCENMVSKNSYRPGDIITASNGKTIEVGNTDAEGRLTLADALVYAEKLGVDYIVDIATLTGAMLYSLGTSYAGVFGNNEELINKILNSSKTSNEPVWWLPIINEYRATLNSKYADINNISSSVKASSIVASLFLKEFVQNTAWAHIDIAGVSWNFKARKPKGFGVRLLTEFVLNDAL

| SMILES | IC50 (Prothrombin) | AC50 [5] | AC50 [6] | AC50 [7] | also measured |
| --- | --- | --- | --- | --- | --- |
| CC(C)c1ccc(-c2noc(C3CCCN(C(=O)c4ccc(F)cc4F)C3)n2)cc1 (stereo not drawn) | > 50 µM (not active) | – | – | – | IC50 [1]: 9.51 µM (not active) |
| CC(=O)n1nc(-c2ccccc2)nc1NCc1ccc(N(C)C)cc1 | 3.39 µM (active) | – | – | – | – |
| Cc1ccc(NC(=O)CN(C)C(=O)CCC(=O)c2cccs2)cc1 | > 50 µM (not active) | – | – | – | – |
| Cn1cc2ccc(N)cc2n1 | – | – | – | – | IC50 [2]: > 50 µM (not active); AC50 [3]: 3.81 µM (active) |
| Cc1nc2ccccc2c2c1CC(C(C)(Cl)Br)O2 (stereo not drawn) | – | 27.6 µM (active) | > 70 µM (inactive) | 1.8 µM (active) | IC50 [4]: > 80 µM (inactive); IC50 (Protein Wnt-3a): 3.82 µM (active) |
| CSc1nc(-c2ccco2)nn1C(=O)CCc1ccccc1 | 0.00551 µM (active) | – | – | – | – |
| O=C(CN1C(=O)CSc2ccccc21)N1CCc2ccccc21 | > 50 µM (not active) | – | – | – | – |
| COc1cccc(C(=O)NNC(=O)Cc2ccc([N+](=O)[O-])cc2)c1 | > 50 µM (not active) | – | – | – | – |
| NC(=O)c1sc2nc3c(c(-c4cccs4)c2c1N)CCCCC3 | – | 0.743 µM (active) | 1.67 µM (active) | 1.43 µM (active) | EC50 [8]: 16.5 µM (active); EC50 [9]: 9.4 µM (active); EC50 [10]: 0.285 µM (active); EC50 [11]: 11.1 µM (active); AC50 (HEK293): 2.27 µM (active); AC50 [12]: < 0.26 µM (active) |
| CC(=O)n1nc(-c2ccccc2)nc1NCc1cccs1 | 0.0965 µM (active) | – | – | – | – |
| Cc1n[nH]c(C)c1S(=O)(=O)N(CC(=O)NC1CCCC1)c1ccc(C(C)C)cc1 | – | 3.91 µM (active) | 6.27 µM (active) | 3.53 µM (active) | AC50 [12]: 2.38 µM (active) |
| O=C(c1ccc([N+](=O)[O-])cc1)n1nc(-c2ccccc2)nc1NCc1ccccc1 | 0.0293 µM (active) | – | – | – | AC50 (Cytochrome P450 2C19): 1.58 µM (inconclusive); AC50 (Cytochrome P450 2C9): 0.631 µM (inconclusive) |
| CCCCn1c(N)c(N(CC(C)C)C(=O)c2ccc(S(=O)(=O)N(CC)c3ccccc3)cc2)c(=O)[nH]c1=O | – | 0.402 µM (active) | 0.877 µM (active) | 2.78 µM (active) | AC50 [12]: < 0.26 µM (active) |
| COC(=O)[C@@]1(C)[C@H]2C(=O)N(Cc3ccccc3)C(=O)[C@H]2[C@H]2CN=C(SCc3ccc(Cl)cc3)N21 | – | 0.876 µM (active) | 1.04 µM (active) | 0.796 µM (active) | AC50 (HEK293): 4.73 µM (active); AC50 [12]: 0.891 µM (active) |
| COc1cccc(/C=N/NC(=O)CC2C(=O)NN=C2C)c1O (stereo not drawn) | – | 49.9 µM (active) | > 70 µM (inactive) | – | IC50 (Leucine aminopeptidase): 92.1 µM (active) |
